According to patent US12178210B2, “Insect attractant and killing system” (priority 2020, dated 2024):
Like-named read-outs stand apart in the source and are kept apart here.

Assays:
[1] = for Attractant Release Rate (5-day average per time point): Ambient Temperature
Excerpt: All prototype lure devices (i.e., the attractant receptacle and permeable membrane with enclosed volatile insect attractant) were constructed using polypropylene/calcium carbonate film (UV8) for the permeable membrane and Scotchpak™ (3M) polyester laminate film for the impermeable barrier material. Each lure device measured approximately 11.5 cm×5.5 cm with a 1.6 mm ( 1/16 in) diameter spherical punch in the impermeable layer exposing the membrane and an ˜8 mm ( 5/16 in) diameter heat seal around the circumference of the punch (referred to as a ring seal). […] Prior to being deployed the lures were weighed on an analytical balance (Sartorius, Universal; resolution of 0.01 g). Prototype lures were attached to a cord that ran the length of ventilated laboratory fume hood, with 5-8 cm (2-3 in) separating each lure in an open, ventilated room at the indicated temperature (18-20° C. or 39-41° C.). Every 2-3 days the lures were removed from the cord and weighed on the same scale. Lure weight was recorded and the weight loss (g/day) was calculated. In addition to prototype lures, two controls were included in the study consisting of a current Suterra lure product (WHF lure) and a competitor product (Comp. Prod. 1).

[2] = field, Valencia
Method: Every two weeks samples of the attractant were weighed to determine the mass. From the mass, the mass that had been released, the mass remaining, and the amount of ammonia released was determined.

For `N.NC(=O)O` [Ammonium Carbamate, ammonium carbamate], the “Release Rate” value ([1]; 40° C., 16 hours, UV8 membrane, 1.6 mm orifice) was 0.49 g/day, the “Release Rate” value ([1]; 40° C., 16 hours, second, unexplained block of rows) was 0.02 g/day and the “Release Rate” value ([1]; 40° C., 24 hours, UV8 membrane, 1.6 mm orifice) was 0.49 g/day. The “Release Rate” value ([1]; 40° C., 24 hours, second, unexplained block of rows) was 0.01 g/day, the “Release Rate” value ([1]; 40° C., 51 hours, UV8 membrane, 1.6 mm orifice) was 0.46 g/day and the “Release Rate” value ([1]; 40° C., 51 hours, second, unexplained block of rows) was 0.01 g/day. The “Release Rate” value ([1]; 40° C., 88 hours, UV8 membrane, 1.6 mm orifice) was 0.45 g/day, the “Release Rate” value ([1]; 40° C., 88 hours, second, unexplained block of rows) was 0.04 g/day and the “Release Rate” value ([1]; 40° C., 96 hours, UV8 membrane, 1.6 mm orifice) was 0.46 g/day. The “Release Rate” value ([1]; 40° C., 96 hours, second, unexplained block of rows) was 0.06 g/day, the “Release Rate” value ([1]; 40° C., 112 hours, UV8 membrane, 1.6 mm orifice) was 0.46 g/day and the “Release Rate” value ([1]; 40° C., 112 hours, second, unexplained block of rows) was 0.08 g/day. For the same molecule, the “Release Rate” value ([1]; 40° C., 120 hours, UV8 membrane, 1.6 mm orifice) was 0.46 g/day, the “Release Rate” value ([1]; 40° C., 120 hours, second, unexplained block of rows) was 0.09 g/day and the “Release Rate” value ([1]; 40° C., 144 hours, UV8 membrane, 1.6 mm orifice) was 0.46 g/day. The “Release Rate” value ([1]; 40° C., 144 hours, second, unexplained block of rows) was 0.11 g/day, the “Release Rate” value ([1]; 40° C., 168 hours, UV8 membrane, 1.6 mm orifice) was 0.46 g/day and the “Release Rate” value ([1]; 40° C., 168 hours, second, unexplained block of rows) was 0.13 g/day. For the same molecule, the “Attractant Release Rate (5-day average per time point)” value ([1]; day 5, 15 g, UV8 membrane, 1.6 mm orifice) was 89.2 mg/day, the “Attractant Release Rate (5-day average per time point)” value ([1]; day 10, 15 g, UV8 membrane, 1.6 mm orifice) was 93.6 mg/day and the “Attractant Release Rate (5-day average per time point)” value ([1]; day 15, 15 g, UV8 membrane, 1.6 mm orifice) was 97.0 mg/day. The “Attractant Release Rate (5-day average per time point)” value ([1]; day 20, 15 g, UV8 membrane, 1.6 mm orifice) was 101.0 mg/day, the “Attractant Release Rate (5-day average per time point)” value ([1]; day 25, 15 g, UV8 membrane, 1.6 mm orifice) was 100.0 mg/day and the “Attractant Release Rate (5-day average per time point)” value ([1]; day 30, 15 g, UV8 membrane, 1.6 mm orifice) was 105.3 mg/day. For the same molecule, the “Attractant Release Rate (5-day average per time point)” value ([1]; day 40, 15 g, UV8 membrane, 1.6 mm orifice) was 99.6 mg/day, the “Attractant Release Rate (5-day average per time point)” value ([1]; day 49, 15 g, UV8 membrane, 1.6 mm orifice) was 113.5 mg/day and the “Attractant Release Rate (5-day average per time point)” value ([1]; day 55, 15 g, UV8 membrane, 1.6 mm orifice) was 114.3 mg/day. For the same molecule, the “Release Rate” value ([1]; Ambient, 16 hours, UV8 membrane, 1.6 mm orifice) was 0.09 g/day, the “Release Rate” value ([1]; Ambient, 16 hours, second, unexplained block of rows) was 0.00 g/day and the “Release Rate” value ([1]; Ambient, 24 hours, UV8 membrane, 1.6 mm orifice) was 0.10 g/day. The “Release Rate” value ([1]; Ambient, 24 hours, second, unexplained block of rows) was 0.01 g/day, the “Release Rate” value ([1]; Ambient, 51 hours, UV8 membrane, 1.6 mm orifice) was 0.10 g/day and the “Release Rate” value ([1]; Ambient, 51 hours, second, unexplained block of rows) was 0.00 g/day. The “Release Rate” value ([1]; Ambient, 88 hours, UV8 membrane, 1.6 mm orifice) was 0.10 g/day, the “Release Rate” value ([1]; Ambient, 88 hours, second, unexplained block of rows) was 0.02 g/day and the “Release Rate” value ([1]; Ambient, 96 hours, UV8 membrane, 1.6 mm orifice) was 0.10 g/day. For the same molecule, the “Release Rate” value ([1]; Ambient, 96 hours, second, unexplained block of rows) was 0.02 g/day, the “Release Rate” value ([1]; Ambient, 112 hours, UV8 membrane, 1.6 mm orifice) was 0.10 g/day and the “Release Rate” value ([1]; Ambient, 112 hours, second, unexplained block of rows) was 0.02 g/day. The “Release Rate” value ([1]; Ambient, 120 hours, UV8 membrane, 1.6 mm orifice) was 0.10 g/day, the “Release Rate” value ([1]; Ambient, 120 hours, second, unexplained block of rows) was 0.00 g/day and the “Release Rate” value ([1]; Ambient, 144 hours, UV8 membrane, 1.6 mm orifice) was 0.10 g/day. For the same molecule, the “Release Rate” value ([1]; Ambient, 144 hours, second, unexplained block of rows) was 0.00 g/day, the “Release Rate” value ([1]; Ambient, 168 hours, UV8 membrane, 1.6 mm orifice) was 0.10 g/day and the “Release Rate” value ([1]; Ambient, 168 hours, second, unexplained block of rows) was 0.00 g/day. For the same molecule, the “Attractant Release Rate (5-day average per time point)” value ([1]; day 5, CM) was 393.2 mg/day, the “Attractant Release Rate (5-day average per time point)” value ([1]; day 10, CM) was 387.2 mg/day and the “Attractant Release Rate (5-day average per time point)” value ([1]; day 15, CM) was 362.0 mg/day. The “Attractant Release Rate (5-day average per time point)” value ([1]; day 20, CM) was 356.0 mg/day, the “Attractant Release Rate (5-day average per time point)” value ([1]; day 25, CM) was 331.6 mg/day and the “Attractant Release Rate (5-day average per time point)” value ([1]; day 30, CM) was 311.7 mg/day. The “Attractant Release Rate (5-day average per time point)” value ([1]; day 35, CM) was 306.5 mg/day, the “Attractant Release Rate (5-day average per time point)” value ([1]; day 40, CM) was 266.0 mg/day and the “Attractant Release Rate (5-day average per time point)” value ([1]; day 45, CM) was 191.6 mg/day. For the same molecule, the “Attractant Release Rate (5-day average per time point)” value ([1]; day 49, CM) was 94.0 mg/day, the “Attractant Release Rate (5-day average per time point)” value ([1]; day 55, CM) was 10.3 mg/day and the “Avg. Mass Loss” value ([2]; week 0, ave. temp. 25.10 ° C) was 0.00 g. For the same molecule, the “Avg. Mass Remaining” value ([2]; week 0, ave. temp. 25.10 ° C) was 16.90 g, the “Avg. Release Rate” value ([2]; week 0, ave. temp. 25.10 ° C) was 0.000 g/day and the “Avg. Mass Loss” value ([2]; week 2, ave. temp. 26.30 ° C) was 0.75 g. The “Avg. Mass Remaining” value ([2]; week 2, ave. temp. 26.30 ° C) was 16.15 g, the “Avg. Release Rate” value ([2]; week 2, ave. temp. 26.30 ° C) was 0.054 g/day and the “Avg. Mass Loss” value ([2]; week 4, ave. temp. 26.90 ° C) was 1.75 g. For the same molecule, the “Avg. Mass Remaining” value ([2]; week 4, ave. temp. 26.90 ° C) was 15.15 g, the “Avg. Release Rate” value ([2]; week 4, ave. temp. 26.90 ° C) was 0.071 g/day and the “Avg. Mass Loss” value ([2]; week 6, ave. temp. 27.10 ° C) was 2.65 g. For the same molecule, the “Avg. Mass Remaining” value ([2]; week 6, ave. temp. 27.10 ° C) was 14.25 g, the “Avg. Release Rate” value ([2]; week 6, ave. temp. 27.10 ° C) was 0.064 g/day and the “Avg. Mass Loss” value ([2]; week 8, ave. temp. 24.40 ° C) was 3.48 g. The “Avg. Mass Remaining” value ([2]; week 8, ave. temp. 24.40 ° C) was 13.42 g, the “Avg. Release Rate” value ([2]; week 8, ave. temp. 24.40 ° C) was 0.059 g/day and the “Avg. Mass Loss” value ([2]; week 10, ave. temp. 22.60 ° C) was 4.17 g. For the same molecule, the “Avg. Mass Remaining” value ([2]; week 10, ave. temp. 22.60 ° C) was 12.72 g, the “Avg. Release Rate” value ([2]; week 10, ave. temp. 22.60 ° C) was 0.050 g/day and the “Avg. Mass Loss” value ([2]; week 12, ave. temp. 21.50 ° C) was 4.82 g. For the same molecule, the “Avg. Mass Remaining” value ([2]; week 12, ave. temp. 21.50 ° C) was 12.08 g, the “Avg. Release Rate” value ([2]; week 12, ave. temp. 21.50 ° C) was 0.046 g/day and the “Avg. Mass Loss” value ([2]; week 14, ave. temp. 19.90 ° C) was 5.38 g. The “Avg. Mass Remaining” value ([2]; week 14, ave. temp. 19.90 ° C) was 11.52 g, the “Avg. Release Rate” value ([2]; week 14, ave. temp. 19.90 ° C) was 0.040 g/day and the “Avg. Mass Loss” value ([2]; week 16, ave. temp. 17.70 ° C) was 5.72 g. For the same molecule, the “Avg. Mass Remaining” value ([2]; week 16, ave. temp. 17.70 ° C) was 11.18 g, the “Avg. Release Rate” value ([2]; week 16, ave. temp. 17.70 ° C) was 0.024 g/day and the “Avg. Mass Loss” value ([2]; week 18, ave. temp. 15.30 ° C) was 6.02 g. For the same molecule, the “Avg. Mass Remaining” value ([2]; week 18, ave. temp. 15.30 ° C) was 10.88 g, the “Avg. Release Rate” value ([2]; week 18, ave. temp. 15.30 ° C) was 0.021 g/day and the “Avg. Mass Loss” value ([2]; week 20, ave. temp. 14.40 ° C) was 6.26 g. For the same molecule, the “Avg. Mass Remaining” value ([2]; week 20, ave. temp. 14.40 ° C) was 10.64 g, the “Avg. Release Rate” value ([2]; week 20, ave. temp. 14.40 ° C) was 0.017 g/day and the “Avg. Mass Loss” value ([2]; week 24, ave. temp. 11.70 ° C) was 6.36 g. For the same molecule, the “Avg. Mass Remaining” value ([2]; week 24, ave. temp. 11.70 ° C) was 10.54 g, the “Avg. Release Rate” value ([2]; week 24, ave. temp. 11.70 ° C) was 0.004 g/day and the “Avg. Mass Loss” value ([2]; week 28, ave. temp. […] C) was 6.71 g. The “Avg. Mass Remaining” value ([2]; week 28, ave. temp. […] C) was 10.19 g, the “Avg. Release Rate” value ([2]; week 28, ave. temp. […] C) was 0.013 g/day and the “Avg. Mass Loss” value ([2]; week 31, ave. temp. […] C) was 7.22 g. For the same molecule, the “Avg. Mass Remaining” value ([2]; week 31, ave. temp. […] C) was 9.67 g, the “Avg. Release Rate” value ([2]; week 31, ave. temp. […] C) was 0.024 g/day and the “Avg. Mass Loss” value ([2]; week 35, ave. temp. 12.60 ° C) was 7.63 g. For the same molecule, the “Avg. Mass Remaining” value ([2]; week 35, ave. temp. 12.60 ° C) was 9.26 g, the “Avg. Release Rate” value ([2]; week 35, ave. temp. 12.60 ° C) was 0.015 g/day and the “Avg. Mass Loss” value ([2]; week 38, ave. temp. 13.50 ° C) was 8.07 g. The “Avg. Mass Remaining” value ([2]; week 38, ave. temp. 13.50 ° C) was 8.83 g, the “Avg. Release Rate” value ([2]; week 38, ave. temp. 13.50 ° C) was 0.021 g/day and the “Avg. Mass Loss” value ([2]; week 39, ave. temp. 13.30 ° C) was 8.24 g. The “Avg. Mass Remaining” value ([2]; week 39, ave. temp. 13.30 ° C) was 8.66 g, the “Avg. Release Rate” value ([2]; week 39, ave. temp. 13.30 ° C) was 0.024 g/day and the “Avg. Mass Loss” value ([2]; week 41, ave. temp. 15.80 ° C) was 8.55 g. The “Avg. Mass Remaining” value ([2]; week 41, ave. temp. 15.80 ° C) was 8.35 g, the “Avg. Release Rate” value ([2]; week 41, ave. temp. 15.80 ° C) was 0.022 g/day and the “Avg. Mass Loss” value ([2]; week 43, ave. temp. 16.50 ° C) was 8.79 g. For the same molecule, the “Avg. Mass Remaining” value ([2]; week 43, ave. temp. 16.50 ° C) was 8.11 g, the “Avg. Release Rate” value ([2]; week 43, ave. temp. 16.50 ° C) was 0.017 g/day and the “Avg. Mass Loss” value ([2]; week 46, ave. temp. 18.10 ° C) was 9.45 g. For the same molecule, the “Avg. Mass Remaining” value ([2]; week 46, ave. temp. 18.10 ° C) was 7.44 g, the “Avg. Release Rate” value ([2]; week 46, ave. temp. 18.10 ° C) was 0.032 g/day and the “Avg. Mass Loss” value ([2]; week 47, ave. temp. 20.40 ° C) was 9.75 g. The “Avg. Mass Remaining” value ([2]; week 47, ave. temp. 20.40 ° C) was 7.14 g and the “Avg. Release Rate” value ([2]; week 47, ave. temp. 20.40 ° C) was 0.043 g/day.
